“Also recorded” adds a separate entry of the source.
How the values were obtained:
[1] = tested on: MCF-7; test: In vitro cytotoxic screening (MTT assay), MCF-7; type: cell-based, human; conditions: for IC50: Homo sapiens, MCF7, MTT assay, 24 h, MCF-7 cell line; for IC50 / Selectivity index S2: mean ± SD; for Cell line selectivity: S1 > S2: more selective to MDA-MBA-231, S2 > S1: more selective to MCF-7; for Selectivity index S2: S2 = IC50 (MDA-MBA-231)/IC50 (MCF-7)
Method: (§1) Cell lines were obtained from American Type Culture Collection, cells were cultured using DMEM (Invitrogen Life Technologies, Waltham, MA, USA) supplemented with 10% FBS (Hyclone, Logan, UT, USA), 10 µg/mL of insulin (Sigma, St. Louis, MO, USA), and 1% penicillin-streptomycin. […] At the end of the incubation, the cells were harvested and washed with PBS. 20 µL of MTT was added to each well and incubated for 2 h before 200 µL DMSO was added. The absorbance was measured on an ELISA reader (Multiskan EX, Lab systems, Waltham, MA, USA) at wavelength of 570 nm.
(§2) All assays were performed in triplicate. The results were expressed as mean ± SD (standard deviation) using Student’s t test.

[2] = tested on: MDA-MBA-231; test: In vitro cytotoxic screening (MTT assay), MDA-MBA-231; type: cell-based, human; conditions: mean ± SD; for IC50: 24 h, MTT assay, MDA-MBA-231 cell line; for Selectivity index S1: S1 = IC50 (MCF-7)/IC50 (MDA-MBA-231)
Method: as §1, §2

[3] = target: EGFR-TK (Homo sapiens, UniProt P00533); test: EGFR inhibition assay (HT Scan EGFR kinase assay kit)
Sequence of EGFR-TK (P00533 25-1210): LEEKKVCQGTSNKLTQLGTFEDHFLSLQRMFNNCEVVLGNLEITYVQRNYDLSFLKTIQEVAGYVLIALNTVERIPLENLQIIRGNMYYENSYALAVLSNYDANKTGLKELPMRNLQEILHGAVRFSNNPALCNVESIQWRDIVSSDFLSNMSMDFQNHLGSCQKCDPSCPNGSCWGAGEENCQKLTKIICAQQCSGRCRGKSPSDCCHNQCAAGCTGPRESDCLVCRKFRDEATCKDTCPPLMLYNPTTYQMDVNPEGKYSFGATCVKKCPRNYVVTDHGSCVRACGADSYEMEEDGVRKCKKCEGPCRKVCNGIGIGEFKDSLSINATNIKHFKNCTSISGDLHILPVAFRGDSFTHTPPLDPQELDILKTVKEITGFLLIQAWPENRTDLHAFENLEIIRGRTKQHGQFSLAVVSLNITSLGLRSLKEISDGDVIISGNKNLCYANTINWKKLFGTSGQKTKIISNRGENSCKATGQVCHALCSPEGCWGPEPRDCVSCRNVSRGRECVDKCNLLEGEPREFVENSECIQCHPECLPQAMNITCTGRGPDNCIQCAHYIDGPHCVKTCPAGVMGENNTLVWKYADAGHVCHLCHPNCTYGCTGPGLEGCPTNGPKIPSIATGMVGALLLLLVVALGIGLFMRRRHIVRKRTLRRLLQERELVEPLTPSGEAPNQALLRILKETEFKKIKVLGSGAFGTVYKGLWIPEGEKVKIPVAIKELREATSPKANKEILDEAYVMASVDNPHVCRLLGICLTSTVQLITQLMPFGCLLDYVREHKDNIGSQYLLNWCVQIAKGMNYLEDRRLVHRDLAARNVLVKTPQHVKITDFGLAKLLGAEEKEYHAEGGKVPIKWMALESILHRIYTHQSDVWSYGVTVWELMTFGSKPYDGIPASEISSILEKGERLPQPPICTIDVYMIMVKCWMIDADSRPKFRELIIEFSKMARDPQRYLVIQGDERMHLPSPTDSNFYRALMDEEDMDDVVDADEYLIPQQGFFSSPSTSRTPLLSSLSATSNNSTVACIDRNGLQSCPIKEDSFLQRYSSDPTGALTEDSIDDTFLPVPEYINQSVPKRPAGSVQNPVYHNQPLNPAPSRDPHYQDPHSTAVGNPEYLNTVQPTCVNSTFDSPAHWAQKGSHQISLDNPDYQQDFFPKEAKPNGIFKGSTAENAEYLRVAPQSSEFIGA
Method: EGFR kinase activity was measured by HT Scan EGFR kinase assay kits (Cell Signaling Technology, Danvers, MA, USA). The experiments were performed following the manufacturer’s directions. […] Strapavidin-coated 96-well plates were used to take phosphorylated substrate. Anti-phosphotyrosine and europium-labeled secondary antibodies (DELFIA, Perkin-Elmer, Akron, OH, USA) were used to monitor the level of phosphorylation.

melting point [°C] | IC50 [3] [µM] | SMILES | IC50 [1] [µM] | Cell line selectivity [1] | Selectivity index S2 [1] | IC50 ([2]; Homo sapiens) [µM] | Selectivity index S1 [2] | IC50 [2] [µM]
231 to 233 | – | Cc1ccc(C=Nn2c(-c3ccc(F)cc3)nc3ccc(F)cc3c2=O)cc1 [Compound 10b, 3-(4-Methylbenzylideneamino)-6-fluoro-2-(4-fluorophenyl)quinazoline-4(3H)-one] | 5.07 ± 0.33 | more selective to MDA-MBA-231 than MCF-7; also recorded: MDA-MBA-231 selective | 0.61 ± 0.06 | 3.09 ± 0.08 | 1.64 ± 0.21 | –
229 to 231 | – | O=c1c2cc(F)ccc2nc(-c2ccc(F)cc2)n1N=Cc1ccc(O)cc1 [Compound 10g, 3-(4-Hydroxybenzylideneamino)-6-fluoro-2-(4-fluorophenyl) quinazolin-4(3H)-one] | 1.32 ± 0.08 | more selective to MCF-7 than MDA-MBA-231; also recorded: MCF-7 selective | 1.92 ± 0.05 | 2.54 ± 0.23 | 0.52 ± 0.07 | –
232 to 234 | – | O=c1c2cc(F)ccc2nc(-c2ccc(F)cc2)n1N=Cc1ccc(F)cc1 [Compound 10d, 3-(4-Fluorobenzylideneamino)-6-fluoro-2-(4-fluorophenyl)quinazolin-4(3H)-one] | 0.89 ± 0.02 | more selective to MDA-MBA-231 than MCF-7; also recorded: MDA-MBA-231 selective | 0.43 ± 0.09 | 0.382 ± 0.01 | 2.34 ± 0.05 | 0.38 ± 0.01
224 to 226 | – | O=c1c2cc(F)ccc2nc(-c2ccc(F)cc2)n1N=Cc1ccc(Cl)cc1 [Compound 10f, 3-(4-Chlorobenzylideneamino)-6-fluoro-2-(4-fluorophenyl)quinazolin-4(3H)-one] | 0.71 ± 0.01 | more selective to MCF-7 than MDA-MBA-231; also recorded: MCF-7 selective | 5.29 ± 0.31 | 3.76 ± 0.22 | 9.57 ± 0.22 | –
223 to 225 | 0.0752 ± 8e-05 | O=C1Nc2ccccc2/C1=N\n1c(-c2ccc(F)cc2)nc2ccc(F)cc2c1=O [Compound 6, 3-(3-Iminoindolin-2-one)-6-fluoro-2-(4-flurophenyl)quinazoline-4(3H)-one] | 0.35 ± 0.01 | more selective to MCF-7 than MDA-MBA-231; also recorded: MCF-7 selective | 3.94 ± 0.26 | 1.38 ± 0.14 | 0.25 ± 0.06 | –
235 to 237 | 0.17008 ± 2e-05 | O=c1c2cc(F)ccc2nc(-c2ccc(F)cc2)n1N=Cc1ccc([N+](=O)[O-])cc1 [Compound 10e, 3-(4-Nitrobenzylideneamino)-6-fluoro-2-(4-fluorophenyl)quinazolin-4(3H)-one] | 2.61 ± 0.14 | more selective to MDA-MBA-231 than MCF-7; also recorded: MDA-MBA-231 selective | 0.11 ± 0.17 | – | 9.32 ± 0.08 | –
228 to 230 | – | O=c1c2cc(F)ccc2nc(-c2ccc(F)cc2)n1N=Cc1ccco1 [Compound 7, 3-((Furan-2-yl)methyleneamino)-6-fluoro-2-(4-fluorophenyl)quinazolin-4(3H)-one] | 1.06 ± 0.03 | more selective to MDA-MBA-231 than MCF-7; also recorded: MDA-MBA-231 selective | 0.89 ± 0.18 | 0.94 ± 0.07 | 1.13 ± 0.09 | –
218 to 220 | – | O=c1c2cc(F)ccc2nc(-c2ccc(F)cc2)n1N=Cc1ccccc1 [Compound 10a, 3-(Benzylideneamino)-6-fluoro-2-(4-fluorophenyl)quinazolin-4(3H)-one] | 0.95 ± 0.01 | more selective to MCF-7 than MDA-MBA-231; also recorded: MCF-7 selective | 2.61 ± 0.09 | 2.48 ± 0.17 | 0.39 ± 0.01 | –
220 to 222 | – | O=c1c2cc(F)ccc2nc(-c2ccc(F)cc2)n1N=CC=Cc1ccccc1 [Compound 8, 3-(3-Phenylallylideneamino)-6-fluoro-2-(4-fluorophenyl)quinazolin-4(3H)-one] | 36.6 ± 1.81 | more selective to MDA-MBA-231 than MCF-7; also recorded: MDA-MBA-231 selective | 0.59 ± 0.02 | 21.6 ± 1.4 | 1.69 ± 0.15 | –
228 to 230 | – | COc1ccc(C=Nn2c(-c3ccc(F)cc3)nc3ccc(F)cc3c2=O)cc1 [Compound 10c, 3-(4-Methoxybenzylideneamino)-6-fluoro-2-(4-fluorophenyl)quinazolin-4(3H)-one] | 10.4 ± 1.14 | more selective to MDA-MBA-231 than MCF-7; also recorded: MDA-MBA-231 selective | 0.10 ± 0.13 | 1.09 ± 0.01 | 9.57 ± 0.11 | –
